From US20060040327A1, “Methods of screening proteins” (priority 2004, published 2006)

Key:
[1] = FRET fluorescent response of E. coli expressing DsRed2-GGBP-acGFP to glucose; type: cell-based; settings: 22 mM glucose; excitation at 475 nm; after accounting for volume displacement
Description: The expression of DsRed2-GGBP-acGFP in E. coli was optimized by first inducing with IPTG and then monitoring the fluorescence produced by the DsRed2 and acGFP proteins. Initially, the protein is expressed for 2-6 hours at 37 C and then transferred to a 25 C shaker for up to 6 days. A 1 ml sample of fermentation broth is removed every 24 hrs during the 25 C expression and examined for fluorescence. […] After accounting for volume displacement, there was a 1-4% increase in DsRed2 emission at 22 mM glucose after excitation at 475 nm due to FRET.

[2] = Stability of binding activity of labeled protein on storage, fluorescent response to glucose; type: physicochemical
Description: (§1) Combining the preceding mutations provided E149C,A213R,L238S, a protein with glucose binding affinity that is within the physiological range. […] As an illustrative example, the stability of this protein's binding activity was determined by storing solutions of the labeled protein at 25° C. and at 37° C. in a dark environment, and testing aliquots periodically for fluorescent response to glucose. The fluorescence increase for E149C,A213R,L238S upon binding glucose retained 92% of the original fluorescence increase after 3 months at 25° C., and 88% after 3 months at 37° C. Relative stability of the protein's tertiary structure was determined using CD (circular dichroism) spectroscopy of the protein in solution. Spectra were collected in 10 mM PBS, pH 7.4. Each spectrum was the average of 3 accumulations. Thermal denaturation was monitored at 220 nm using a temperature slope of 15° C. per hour over a temperature range of 15-75° C. The Tm (temperature where 50% of the protein was denatured) was 47° C. without glucose and 50° C. in the presence of glucose (see FIG. 2).

[3] = Fluorescent response and glucose binding curve of IANBD-labeled GGBP mutants; settings: IANBD-labeled protein; for Kd: read-out: glucose affinity; for increase in fluorescence on binding glucose: fluorescent response to 100 mM glucose
Description: GGBP protein from the above examples, expressed from E. coli strain Sg13009 following standard protocols (Qiagen) may be further purified. For example, after induction, bacteria were lysed and purified by IMAC using Talon cobalt^2+ resin (Clontech). The purified protein solution was filtered through 100 kDa and 10 kDa cutoff filters (Millipore). […] The yield from the purification was 10 mg/l and the activity of the protein is stable for at least six months. The selected mutants were expressed, purified, and IANBD-labeled to determine their ability to produce a fluorescent response to 100 mM glucose. Mutant E149C,A213R and E149C,N256R produced a 6- and 2-fold increase in fluorescence on binding glucose, respectively. […] Mutant E149C,L238S was identified through an analogous procedure.
as §1

[4] = Thermal denaturation by CD spectroscopy at 220 nm; type: physicochemical; settings: 10 mM PBS, pH 7.4, CD 220 nm
Excerpt: FIG. 2 depicts a plot of the CD spectra ellipticity at 220 nm wavelength of a fluorescently labeled periplasmic binding protein versus temperature. The plot for the protein without ligand is the solid line and the dotted line is the same protein in the presence of its ligand (glucose).
as §1

[5] = Fluorescence assay of NBD-labeled MBP mutants, maltotetraitol; type: binding; settings: ligand maltotetraitol; for QF: ratio of fluorescence intensity with / without ligand; for Kd: read-out: Affinity
Description: (§2) For the mutants selected by FACS, a fluorescence assay was used to determine their maltose affinity. The mutants were labeled by fluorophore coupling of N,N′-dimethyl-N-(iodoacetyl)-N′-(7-nitrobenz-2-oxa-1,3-diazol-4-yl)ethylenediamine (IANBD amide, Molecular Probes) to a cysteine site created by mutagenesis at position 95 (Gilardi et al. (1997) Protein Eng. 10(5):479-86). Briefly, purified protein (1-2 mg/ml) was treated with dithiothreitol for 30 min and then a 10-fold molar excess of freshly prepared solution of IANBD was added. The protein and dye were gently mixed at RT for 4 hrs before the unreacted dye was removed by Nap-5 (Amersham) size-exclusion column chromatography. The efficiency of the coupling was determined by absorbance.
(§3) QF is defined as the ratio of fluorescence intensity in the presence of ligand, divided by the ratio of fluorescence intensity in the absence of ligand.

[6] = Fluorescence assay of NBD-labeled MBP mutants, maltose; type: binding; settings: ligand Maltose; for QF: ratio of fluorescence intensity with / without ligand; for Kd: read-out: Affinity
Description: as §2, §3

[7] = Fluorescence assay of NBD-labeled MBP mutants, maltoside; type: binding; settings: ligand maltoside; ratio of fluorescence intensity with / without ligand
Description: as §2, §3

[8] = Fluorescence assay of NBD-labeled MBP mutants, maltotetraose; type: binding; settings: ligand maltotetraose; for QF: ratio of fluorescence intensity with / without ligand; for Kd: read-out: Affinity
Description: as §2, §3

Row | Substance | Kd ([3]; binding curve) | increase in fluorescence on binding glucose [3] | Kd [5] | Kd [6] | Kd [8] | other results
1 | DsRed2-GGBP-acGFP |  |  |  |  |  | increase in DsRed2 emission due to FRET [1]: 1-4%
2 | E149C,A213R,L238S: GGBP mutant combining the preceding mutations | 12000 µM | > 6 fold |  |  |  | fluorescence increase upon binding glucose retained, of the original fluorescence increase ([2]; labeled protein solution stored 3 months at 25° C. in the dark): 92%; fluorescence increase upon binding glucose retained, of the original fluorescence increase ([2]; labeled protein solution stored 3 months at 37° C. in the dark): 88%; Tm (temperature where 50% of the protein was denatured) ([4]; in the presence of glucose): 50 °C; Tm (temperature where 50% of the protein was denatured) ([4]; without glucose): 47 °C
3 | E149C,A213R: GGBP mutant binding protein identified by the periplasmic screening assay | 1000 µM | 6 fold |  |  |  | 
4 | E149C,L238S: GGBP mutant binding protein identified through an analogous procedure | 80 µM | 6 fold |  |  |  | 
5 | E149C,N256R: GGBP mutant selected by screening, eliminated from further testing |  | 2 fold |  |  |  | glucose affinity ([3]; binding curve): did not reach saturation at 100 mM glucose
6 | MBP(D14L,K15R,D95C)-NBD [SC-1] |  |  | 3.7 µM | 15 µM | 3.6 µM | QF [5]: 2.8; QF [6]: 3.4; QF [7]: 5.5; QF [8]: 2.1
7 | MBP(D14V, K15V, D95C)-NBD [SC-2] |  |  | 11 µM | 220 µM | 40 µM | 
8 | MBP(D95C)-NBD [CONTROL, reference compound] |  |  | 4.5 µM | 1 µM | 0.2 µM | QF [5]: 1.2; QF [6]: 5.3; QF [7]: 5.5; QF [8]: 5.2
